In article PMC7942396, “Drug Repurposing Screen for Compounds Inhibiting the Cytopathic Effect of SARS-CoV-2” (Frontiers in Pharmacology, 2021):
Structures can show the parent of a compound that is named as a salt. Where two headings read alike, the source gives them in different places.

Experiments:
[1] = system: SARS-CoV-2 (USA_WA1/2020); assay: microbe, parasite or virus in culture; assay type: cell-based
in vitro = conditions: African green monkey
[2] = Severe acute respiratory syndrome coronavirus 2, Vero C1008, read-out: CPE % Efficacy
[3] = Severe acute respiratory syndrome coronavirus 2, Vero C1008, read-out: CPE EC50 (uM)
[4] = Severe acute respiratory syndrome coronavirus 2, Vero C1008, SARS-CoV-2 CPE assay, Vero E6 cells, confirmed anti-SARS-CoV-2 compounds, read-out: CPE EC50
[5] = Severe acute respiratory syndrome coronavirus 2, Vero C1008, SARS-CoV-2 CPE assay, Vero E6 cells, efficacy, read-out: CPE % Efficacy
[6] = Severe acute respiratory syndrome coronavirus 2, Vero C1008, SARS-CoV-2 CPE assay, Vero E6 cells, read-out: CPE % Efficacy
[7] = Severe acute respiratory syndrome coronavirus 2, Vero C1008, SARS-CoV-2 CPE assay, Vero E6 cells, read-out: CPE EC50
[8] = Severe acute respiratory syndrome coronavirus 2, Vero C1008, 72 h, read-out: CPE EC50
[9] = Severe acute respiratory syndrome coronavirus 2, Vero C1008, […], DMSO 0%, no-virus control 100%, hit confirmation, read-out: CPE % efficacy

| SMILES | cytotoxicity (in vitro) [%] | EC50 [1, 4] [µM] | Emax [1, 5] [%] | cytotoxicity at 72 h (in vitro) [%] | CC50 (in vitro) [µM] | Emax [1, 6] [%] | EC50 [1, 7] [µM] | other results |
| --- | --- | --- | --- | --- | --- | --- | --- | --- |
| CN(C)CCC=C1c2ccccc2C=Cc2ccccc21 [Cyclobenzaprine hydrochloride] | 23.9 | – | – | – | – | – | – | Emax [1, 2]: 77.2%; EC50 [1, 3]: 12.6 µM |
| CC1CCCCN1CCCOC(=O)c1ccc(OC2CCCCC2)cc1 (centres unmarked) [Cyclomethycaine] | – | 8.91 | 79.7 | 9.6 | – | – | – | CC50 at 72 h (in vitro): 17.8 µM |
| CN1CCC(=C2c3ccccc3C=Cc3ccccc32)CC1 [Cyproheptadine hydrochloride] | 20.2 | – | 50 | – | 12.6 | – | – | – |
| CCCCCCCCn1cc(CC(N)=O)c2cc(-c3cccc(C)c3)ccc21 [Cysmethynil] | – | 11.2 | 89.1 | 106 | – | – | – | – |
| CCn1c(=O)c(-c2cc(NC(=O)Nc3ccccc3)c(F)cc2Br)cc2cnc(NC)cc21 [DCC-2618] | – | – | – | 48.5 | – | 65.4 | 12.6 | CC50 at 72 h (in vitro): 11.2 µM |
| CN(C)[C@@H](CCOc1cccc2ccccc12)c1ccccc1 [Dapoxetine] | – | 10 | 82.6 | 32 | – | – | – | – |
| CCN(CC)CCN(Cc1ccc(-c2ccc(C(F)(F)F)cc2)cc1)C(=O)Cn1c(SCc2ccc(F)cc2)nc(=O)c2c1CCC2 [Darapladib] | 102 | 2.82 | 75.1 | – | 11.2 | – | – | – |
| CNCCCN1c2ccccc2CCc2ccccc21 [Desipramine hydrochloride] | 9.2 | 11.2 | 43.7 | – | 5.01 | – | – | – |
| CCCCCCC(C)(C)c1cc(O)c2c(c1)OC(C)(C)[C@H]1CC=C(CO)C[C@H]21 [Dexanabinol, reference compound] | < 30 | – | – | – | – | – | – | EC50 [1, 8]: 10 µM; Emax [1, 9]: 111% |
| CCCCOc1cc(C(=O)NCCN(CC)CC)c2ccccc2n1 [Dibucaine] | – | – | – | 0 | – | 61.8 | 12.6 | – |
| CC(C(O)c1ccccc1)N(C)CCOC(c1ccccc1)c1ccccc1 (centres unmarked) [Difeterol, reference compound] | – | – | – | < 30 | – | – | – | EC50 [1, 8]: 10 µM; Emax [1, 9]: 113% |
| CC(C)[C@@]1(NC(=O)[C@@H]2C[C@@H]3c4cccc5[nH]cc(c45)C[C@H]3N(C)C2)O[C@@]2(O)[C@@H]3CCCN3C(=O)[C@H](Cc3ccccc3)N2C1=O [Dihydroergocristine] | 11.5 | – | – | – | 15.8 | 32 | 14.1 | – |
| CN(C)CC/C=C1\c2ccccc2CSc2ccccc21 [Dosulepin hydrochloride] | 17.2 | – | – | – | 12.6 | 30.8 | 14.1 | – |
| COc1cc2nc(N3CCN(C(=O)C4COc5ccccc5O4)CC3)nc(N)c2cc1OC (centres unmarked) [Doxazosin mesylate] | 0 | – | – | – | – | 86.6 | 14.1 | – |
| O=c1c2ccccc2[se]n1-c1ccccc1 [Ebselen] | – | 11.2 | 38.1 | 0 | – | – | – | – |
| O=C1Nc2ccc(Cl)cc2[C@@](C#CC2CC2)(C(F)(F)F)O1 [Efavirenz] | 24.3 | – | – | – | – | 90.6 | 14.1 | – |
| CCNCCc1ccc(CN(CC)c2cc(OC)ccc2[C@@H]2CCc3cc(O)ccc3C2)cc1 [Elacestrant] | – | 3.98 | 104 | 104 | – | – | – | CC50 at 72 h (in vitro): 12.6 µM |
| CSc1ccc(C(=O)/C=C/c2cc(C)c(OC(C)(C)C(=O)O)c(C)c2)cc1 [Elafibranor] | – | – | – | 0 | – | 55.7 | 19.9 | – |
| Fc1ccc(C(c2ccc(F)cc2)N2CCN(C/C=C/c3ccccc3)CC2)cc1 [Flunarizine, reference compound] | < 30 | – | – | – | – | – | – | Emax [1, 9]: 94.1% |
| CC(CN1c2ccccc2Sc2ccc(S(=O)(=O)N(C)C)cc21)N(C)C (centres unmarked) [Fonazine] | – | 11.2 | 36.6 | 0 | – | – | – | – |
| Cc1ccc(NC(=O)Nc2cc(C(F)(F)F)ccc2F)cc1Nc1ccc2c(c1)NC(=O)/C2=C\c1ccc[nH]1 [GNF-5837] | 61.4 | 3.16 | 84 | – | 8.91 | – | – | – |
| CCCc1cc(C)[nH]c(=O)c1CNC(=O)c1cc(-c2ccnc(N3CCN(C)CC3)c2)cc2c1cnn2C(C)C [GSK-343] | 16.6 | – | – | – | 10 | 51.7 | 14.1 | – |
| CCn1c(-c2nonc2N)nc2cnc(Oc3cccc(NC(=O)c4ccc(OCCN5CCOCC5)cc4)c3)cc21 [GSK-269962A] | 56.8 | 7.94 | 41.8 | – | 2 | – | – | – |
| CCc1ccc(N(CC(C)C)S(=O)(=O)c2ccc(OCC3CCOCC3)c(CO)c2)cc1 [GSK-2981278] | – | – | – | 51.1 | – | 36 | 14.1 | CC50 at 72 h (in vitro): 12.6 µM |

| SMILES | cytotoxicity (in vitro) [%] | EC50 [1, 4] [µM] | Emax [1, 5] [%] | cytotoxicity at 72 h (in vitro) [%] | CC50 (in vitro) [µM] | Emax [1, 6] [%] | EC50 [1, 7] [µM] | other results |
| --- | --- | --- | --- | --- | --- | --- | --- | --- |
| CC(=O)OC[C@]12C[C@H](OC(=O)CC(C)C)C(C)=C[C@H]1O[C@@H]1[C@H](O)[C@@H](O)[C@@]2(C)[C@]12CO2 [HT-2 Toxin] | 98 | – | – | – | 0.13 | – | – | CPE % Efficacy [1]: 32.4%; EC50 ([1]; read-out: CPE EC50): 0.0226 µM |
| CCCCN(CCCC)CCC(O)c1cc2c(Cl)cc(Cl)cc2c2cc(C(F)(F)F)ccc12 (centres unmarked) [Halofantrine] | 37.6 | 5.62 | 73.4 | – | – | – | – | – |
| CN1CCCN(C(c2ccccc2)c2ccc(Cl)cc2)CC1 (centres unmarked) [Homochlorcyclizine] | 34.2 | 10 | 84.3 | – | 12.6 | – | – | – |
| COc1cc(O)c2c(c1)[C@H]1O[C@@H]1C[C@H](O)[C@H](O)C(=O)/C=C\C[C@H](C)OC2=O [Hypothemycin] | 60.1 | – | – | – | 12.6 | 81.2 | 12.6 | – |
| COc1cc(C(C)=O)ccc1OCCCN1CCC(c2noc3cc(F)ccc23)CC1 [Iloperidone] | – | – | – | 16.4 | – | 108 | 12.6 | CC50 at 72 h (in vitro): 15.8 µM |
| Cc1ccc(NC(=O)c2ccc(CN3CCN(C)CC3)cc2)cc1Nc1nccc(-c2cccnc2)n1 [Imatinib, reference compound] | < 30 | – | – | – | – | – | – | Emax [1, 9]: 119% |
| CN(C)CCCN1c2ccccc2CCc2ccccc21 [Imipramine] | 0 | – | – | – | – | 57.6 | 12.6 | – |
| Cc1cn(CCN2CCN(c3ccccc3-c3cc(C#N)cc(C(=O)NCCCN4CCCC4)c3)CC2)c2ccccc12 [LLY-507] | – | 3.16 | 59.6 | 108 | – | – | – | CC50 at 72 h (in vitro): 12.6 µM |
| O[C@H]1[C@H]2c3cc4c(cc3CN3CCC(=C[C@@H]1O)[C@H]23)OCO4 [Lycorine hydrochloride] | 90.6 | 0.63 | 34.6 | – | 3.55 | – | – | – |
| COc1ccc(-c2csc(NC(=O)[C@H]3CCCCN3S(=O)(=O)c3ccc(C)cc3)n2)cc1 [ML277] | 0 | 10 | 45.4 | – | – | – | – | – |
| CN1CCCCC1CCN1c2ccccc2Sc2ccc([S+](C)[O-])cc21 (centres unmarked) [Mesoridazine] | 16.1 | – | – | – | 15.8 | – | – | Emax [1, 2]: 43.5%; EC50 [1, 3]: 12.6 µM |
| CN1CCC(CN2c3ccccc3Sc3ccccc32)C1 (centres unmarked) [Methdilazine hydrochloride, reference compound] | < 30 | – | – | – | – | – | – | EC50 [1, 8]: 10 µM; Emax [1, 9]: 86.4% |
| Clc1ccc2c(c1)N=C(N1CCNCC1)c1ccccc1N2 [N-Desmethylclozapine] | – | – | – | 20.1 | – | 31.1 | 14.1 | CC50 at 72 h (in vitro): 10 µM |
| Cc1c(O)cccc1C(=O)N[C@@H](CSc1ccccc1)[C@H](O)CN1C[C@H]2CCCC[C@H]2C[C@H]1C(=O)NC(C)(C)C [Nelfinavir Mesylate] | 96.9 | 3.55 | 106 | – | 12.6 | – | – | – |
| COC(=O)C1=C(C)NC(C)=C(C(=O)OCCN(C)Cc2ccccc2)C1c1cccc([N+](=O)[O-])c1 (centres unmarked) [Nicardipine] | 32.8 | – | – | – | 12.6 | 56.3 | 12.6 | – |
| NC(=O)c1cccc2cn(-c3ccc([C@@H]4CCCNC4)cc3)nc12 [Niraparib] | 24.3 | – | – | – | 15.8 | – | – | Emax [1, 2]: 134%; EC50 ([1]; Severe acute respiratory syndrome coronavirus 2, Vero C1008, read-out: CPE EC50): 11.2 µM |
| CC(=O)Oc1ccccc1C(=O)Nc1ncc([N+](=O)[O-])s1 [Nitazoxanide] | – | 6.31 | 73.7 | 54.7 | – | – | – | CC50 at 72 h (in vitro): 12.6 µM |
| C=C1C(=O)[C@]23[C@H](O)[C@H]1CC[C@H]2[C@@]12CO[C@]3(O)[C@@H](O)[C@@H]1C(C)(C)CC[C@@H]2O [Oridonin] | 27.4 | – | – | – | – | 130 | 11.2 | – |
| OCCOc1ccc(/C(=C(/CCCl)c2ccccc2)c2ccccc2)cc1 [Ospemifene] | 26.6 | – | – | – | 12.6 | – | – | Emax [1, 2]: 48.2%; EC50 [1, 3]: 12.6 µM |
| O=c1[nH]c2ccccc2n1CCCN1CCN(C(c2ccccc2)c2ccccc2)CC1 [Oxatomide] | – | 10 | 83.9 | 31.3 | – | – | – | – |
| N#Cc1ccc2c(c1)N(CCCN1CCC(O)CC1)c1ccccc1S2 [PERICIAZINE] | 23.1 | – | – | – | – | 107 | 12.6 | – |
| Fc1ccc2[nH]ccc2c1-c1nc(N2CCOCC2)c2sc(CN3CCN(CC4CC4)CC3)cc2n1 [PI-3065] | – | – | – | 52.2 | – | 32.7 | 14.1 | CC50 at 72 h (in vitro): 5.62 µM |
| NC(=O)c1cnc(N[C@@H]2CCCC[C@@H]2N)nc1Nc1cccc(-n2nccn2)c1 [PRT-062607] | 24.9 | 11.2 | 66.4 | – | – | – | – | – |
| CNCCC=C1c2ccccc2CCc2ccccc21 [Pamelor] | 0 | – | – | – | – | – | – | Emax [1, 2]: 103%; EC50 [1, 3]: 12.6 µM |
